From patent US20080200424A1, “Preparation for Treating Cancer” (priority 2004, published 2008)

Assays:
[1] = system: head and neck tumour cell lines SCC9 and SCC25; test: Efficacy on tumour cells, cell line not given (cisplatin combinations, best concentration, proliferation); format: cell-based; details: combined with cisplatin (FIG. 2, FIG. 5); 7β-hydroxycholesterol in small doses
From the text: (§1) The biological activity of 7β-hydroxycholesterol and caroverin alone and also combined with each other was investigated. The efficacy was checked using the head and neck tumour cell lines SCC9 and SCC25.

[2] = system: SCC9; test: Efficacy against head and neck tumour cell line SCC9; format: cell-based; details: substance alone, treatment period of 72 hours (FIG. 1)
From the text: as §1

[3] = system: SCC25; test: Efficacy against head and neck tumour cell line SCC25; format: cell-based; details: substance alone, treatment period of 72 hours (FIG. 1)
From the text: as §1

[4] = system: healthy cells; details: does not attack healthy cells; cited from earlier work

Row | Structure (SMILES) | synergistic effect combined with cisplatin [1] | efficacy against cell line [2] | efficacy against cell line [3] | toxicity [4]
1 | CCN(CC)CCn1c(=O)c(Cc2ccc(OC)cc2)nc2ccccc21 [caroverin, 1-diethylaminoethyl-3-(p-methoxybenzyl)-1,2-dihydro-quinoxalin-2-one, reference compound] | could not be proved |  |  | 
2 | CC(C)CCC[C@@H](C)[C@H]1CC[C@H]2[C@@H]3[C@@H](O)C=C4C[C@@H](O)CC[C@]4(C)[C@H]3CC[C@]12C [7β-hydroxycholesterol] | synergistic effect | effective | effective | completely non-toxic
